Data reported in US12264150B2, “NR4A1 ligands, pharmaceutical compositions, and related methods of use” (The Texas A&M University System, priority 2017, dated 2025).
“Also recorded” adds a separate entry of the source.

Columns and labels:
GAL4-NR4A1 = experiment: GAL4-NR4A1/UAS-Luc transactivation (luciferase) in Panc1 cells; format: cell-based
Text: (§1) FIG. 2 graphically illustrates luciferase activity in Panc1 cells transfected with GAL4-NR4A1 and GAL4-NR4A2 and UAS-Luc (GAL4-binding luciferase construct) treated with 4-, 3- and 2-hydroxy C-DIM analogs according to embodiments of the present disclosure;
Therefore, nine substituted 4-hydroxy analogs were synthesized to investigate their relative potencies as NR4A1 ligands and their half-lives since some of the substituents buttress the hydroxy group. Their effects on activation/inactivation of GAL4-NR4A1 and GAL4-NR4A2 in Panc1 cells were determined (see FIGS. 9 and 13).

GAL4-NR4A2 = experiment: GAL4-NR4A2/UAS-Luc transactivation (luciferase) in Panc1 cells; format: cell-based
Text: as §1
FIG. 13 graphically illustrates luciferase activity in Panc1 cells transfected with GAL4-NR4A2 and UAS-Luc treated with 3-hydroxy C-DIM analogs, according to embodiments of the present disclosure;
FIG. 15 graphically illustrates luciferase activity in Panc1 cells transfected with GAL4-NR4A2 and UAS-Luc treated with 2-hydroxy C-DIM analogs, according to embodiments of the present disclosure;

β1-integrin and TXNDC5 = experiment: Western blot down-regulation of β1-integrin and TXNDC5 in Panc1 and SKBR3 cells; format: cell-based; conditions: FIG. 3
Text: FIG. 3 includes images of western blots of Panc1 (pancreatic) and SKBR3 (breast) cancer cells treated with monohydroxy C-DIM compounds, according to embodiments of the present disclosure, showing down-regulation of expression of two NR4A1-dependent factors, β1-integrin and TXNDC5;
Compared to the 4-bromo standard NR4A2 ligand, the 3- and 2-hydroxy isomers had minimal NR4A2 activity. […] The results correlate with the transactivation data.

SERPINB5 [1] = experiment: SERPINB5 induction (western blot) in SKBR3 breast cancer cells; format: cell-based; conditions: for potency order for inducing SERPINB5: western blot, FIGS. 3 and 5
Text: FIG. 5 includes images of western blots of SKBR3 (breast) cancer cells treated with 4-, 3- and 2-hydroxy C-DIM compounds, according to embodiments of the present disclosure, showing up-regulation of expression of SERPINB5;
In this study, the DMSO (control) value was relatively high, resulting in low induction by the 4-hydroxy compound, whereas in other experiment induction was observed due to lower basal SERPINB5 levels.

[2] = tested on: human MDA-MB-231 breast cancer cells; experiment: Orthotopic breast tumor growth in athymic nude mice; format: in vivo, mouse; conditions: for tumor growth: 10 mg/kg/day, athymic nude mice, orthotopic model; for ED50 values for tumor growth inhibition: expected from the 10 mg/kg/day result
Experimental: FIGS. 12A-12C graphically illustrate mammary tumor volume in an athymic nude mouse xenograft model using human MDA-MB-231 breast cancer cells treated with 4-hydroxy C-DIM analogs (10 mg/kg/day) (black) relative to a control (gray), according to embodiments of the present disclosure;

NR4A1, Rab4, AMPK = experiment: Western blots of whole cell lysates of C2C12 muscle cells; format: cell-based, murine; conditions: western blot
Text: FIGS. 25A-25D are images of western blots of whole cell lysates of C2C12 cells treated with C-DIM analogs, according to embodiments of the present disclosure;
(§2) There is also evidence that NR4A1 plays a role in enhancing glucose metabolism in muscle and this is consistent with potential anti-diabetic activity for NR4A1 ligands which has previously been reported for cytosporone-derived NR4A1 ligands in mouse models. Initial studies with DIM-C-pPhOH and second generation substituted analogs used C2C12 muscle cells as a model for investigating the anti-diabetic activity of these compounds. FIGS. 25A-25D illustrate that NR4A1 is expressed in C2C12 cells and treatment with C-DIM8 (DIM-C-pPhOH) or the second generation substituted C-DIM8 analogs 3,5-dibromo-(C-DIM8-3,5-Br2), 3-chloro-(C-DIM8-3-Cl), and 3-chloro-5-methoxy-(C-DIM8-3-Cl-5-OCH3) increased expression of NR4A1 in C2C12 cells.

G6Pase and PEPCK = G6Pase and PEPCK in glucose-starved HepG2 cells; format: cell-based
RMS xenograft tumor = experiment: RMS mouse xenograft tumor growth
[3] = Blood glucose in C57BL/6 mice on a high-fat diet; format: in vivo, mouse
NR4A1 LBD = molecular target: T1, NR4A1 LBD (Homo sapiens, UniProt P22736); experiment: Surface plasmon resonance binding, immobilized NR4A1 LBD; conditions: 5 or 10 μM ligand, 25° C., Biacore 3000, CM5 chip
T1 construct: Purified NR4A1 and NR4A2 LBD proteins were covalently immobilized
T1 sequence (P22736 360-595 limits assumed, species assumed): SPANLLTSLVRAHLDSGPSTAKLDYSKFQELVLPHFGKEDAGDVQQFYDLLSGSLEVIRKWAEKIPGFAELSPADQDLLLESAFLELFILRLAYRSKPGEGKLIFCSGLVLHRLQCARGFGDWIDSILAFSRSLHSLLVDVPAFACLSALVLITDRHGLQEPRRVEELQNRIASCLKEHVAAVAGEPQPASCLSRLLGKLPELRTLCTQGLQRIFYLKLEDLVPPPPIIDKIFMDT
Experimental: (§3) Binding experiments were performed using the SPR method at 25° C. on Biacore 3000 system (GE Healthcare). Purified NR4A1 and NR4A2 LBD proteins were covalently immobilized on CM5 sensor chip (GE) using an amine coupling procedure. Alternatively, the more expensive his-tag-binding NTA sensor chip (GE) can be used to insure correct protein surface orientation. SPR response curves (sensorgrams) were generated after ligand injection using 5 or 10 μM DIM-C-pPhX analogs with X=Br (#2), X═OH (#8), X═CN (#10) and X═CO2Me (#14) (see FIG. 22).

NR4A2 LBD = molecular target: T2, NR4A2 LBD (Homo sapiens, UniProt P43354); experiment: Surface plasmon resonance binding, immobilized NR4A2 LBD; conditions: 5 or 10 μM ligand, 25° C., Biacore 3000, CM5 chip
T2 construct: Purified NR4A1 and NR4A2 LBD proteins were covalently immobilized
T2 sequence (P43354 360-595 limits assumed, species assumed): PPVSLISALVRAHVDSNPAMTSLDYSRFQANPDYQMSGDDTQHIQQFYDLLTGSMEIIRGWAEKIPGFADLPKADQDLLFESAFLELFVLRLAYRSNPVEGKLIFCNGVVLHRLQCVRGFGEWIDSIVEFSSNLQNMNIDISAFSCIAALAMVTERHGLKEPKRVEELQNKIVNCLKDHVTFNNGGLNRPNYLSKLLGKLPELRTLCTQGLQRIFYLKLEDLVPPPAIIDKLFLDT
Experimental: as §3

NR4A1 = NR4A1 (Homo sapiens, UniProt P22736); experiment: NR4A1 binding affinity of the 4-hydroxy compound
Sequence of NR4A1 (P22736 whole entry, species assumed): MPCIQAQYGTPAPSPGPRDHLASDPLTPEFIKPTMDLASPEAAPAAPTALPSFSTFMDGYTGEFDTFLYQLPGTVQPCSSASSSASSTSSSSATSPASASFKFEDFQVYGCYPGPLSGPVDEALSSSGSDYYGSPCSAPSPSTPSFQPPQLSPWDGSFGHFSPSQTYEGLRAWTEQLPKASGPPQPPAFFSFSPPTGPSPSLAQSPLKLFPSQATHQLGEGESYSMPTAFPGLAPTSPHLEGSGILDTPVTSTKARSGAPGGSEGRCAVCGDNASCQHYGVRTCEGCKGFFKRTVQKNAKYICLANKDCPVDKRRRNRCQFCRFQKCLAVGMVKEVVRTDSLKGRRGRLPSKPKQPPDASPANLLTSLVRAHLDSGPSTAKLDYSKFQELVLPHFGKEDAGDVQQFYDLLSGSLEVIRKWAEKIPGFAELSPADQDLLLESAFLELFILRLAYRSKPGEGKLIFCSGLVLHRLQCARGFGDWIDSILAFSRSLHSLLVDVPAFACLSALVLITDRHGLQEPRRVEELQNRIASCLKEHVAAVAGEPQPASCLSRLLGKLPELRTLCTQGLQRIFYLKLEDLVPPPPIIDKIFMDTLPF

TXNDC5 and PAX3-FOX01A = experiment: Western blot of NR4A1-regulated gene products in Rh30 rhabdomyosarcoma cells; format: cell-based; conditions: 20 μM
Text: FIG. […]
The effects of the 4-hydroxy reference compound and the nine analogs were compared with respect to down-regulation of two NR4A1-regulated gene products in Rh30 rhabdomyosarcoma cells, namely TXNDC5 and PAX3-FOX01A. […] The results also indicate that NR4A1-dependent transactivation assays appear to be less predictive than NR4A1-regulated gene products in determining differences in NR4A1 antagonist potencies.

SERPINB5 [4] = experiment: SERPINB5 induction (western blot) in Panc1 cells; format: cell-based; conditions: 20 μM
[5] = tested on: NR4A1 and GLUT-4 gene expression; experiment: NR4A1/GLUT-4 mRNA expression in C2C12 cells; format: cell-based, murine
Text: FIGS. 26A-26D graphically illustrate relative NR4A1/glucose transporter 4 (GLUT-4) mRNA expression in C2C12 cells treated with C-DIM analogs, according to embodiments of the present disclosure;
as §2

C2C12 cells = experiment: Glucose uptake in C2C12 cells; format: cell-based, murine; conditions: 15 and 20 μM
Text: FIG. 27 graphically illustrates glucose uptake in C2C12 cells treated with C-DIM analogs, according to embodiments of the present disclosure;

[6] = cited from earlier work
tumor growth = conditions: cited from earlier work
cancer cell lines = conditions: cited from earlier work
PFKM, PGAM2, BPGM, PYGM = experiment: mRNA expression of glycolytic genes in C2C12 cells; format: cell-based, murine
Text: FIGS. 28A-28E graphically illustrate relative mRNA expression of glycolytic genes in C2C12 cells treated with DIM-C-pPhOH (A), DIM-C-pPhOH-3,5-Br2 (B), DIM-C-pPhOH-3-Cl (C), and DIM-C-pPhOH-3-Cl-5-OCH3 (D) for 24 hr, or cells were transfected with NR4A1 expression plasmid (E);
Overexpression of NR4A1 in C2C12 cells induces several genes involved in glycolysis including phosphofructokinase (PFKM), phosphoglycerate mutase 2 (PGAM2), bisphosphoglycerated mutase (BPGM), and glycogen phosphorylase M (PYGM).

Oc1cccc(C(c2c[nH]c3ccccc23)c2c[nH]c3ccccc23)c1Br [2 bromo (3-hydroxy analog)]
potency in NR4A1-dependent transactivation vs unsubstituted 3- and 4-hydroxy DIM standards (GAL4-NR4A1; substituted 3-hydroxy DIM analogs, FIG. 7): more potent

Oc1ccccc1C(c1c[nH]c2ccccc12)c1c[nH]c2ccccc12 [2-hydroxy compound]
NR4A2 activity (GAL4-NR4A2) compared to the 4-bromo reference (GAL4-NR4A2): minimal | potency in down-regulation of β1-integrin and TXNDC5 vs the 4-hydroxy compound (β1-integrin and TXNDC5): more potent | potency order for inducing SERPINB5 (SERPINB5 [1]): 2-OH/3-OH>4-OH

Oc1ccc(C(c2c[nH]c3ccccc23)c2c[nH]c3ccccc23)cc1F [3-fluoro-4-hydroxy analog]
potency as inhibitors of NR4A1-dependent transactivation relative to the 4-hydroxy reference compound (GAL4-NR4A1; tested at 7.5 μM and 15 μM): exception

Oc1cccc(C(c2c[nH]c3ccccc23)c2c[nH]c3ccccc23)c1 [3-hydroxy compound]
NR4A2 activity (GAL4-NR4A2) compared to the 4-bromo reference (GAL4-NR4A2): minimal | potency in down-regulation of β1-integrin and TXNDC5 vs the 4-hydroxy compound (β1-integrin and TXNDC5): more potent | potency order for inducing SERPINB5 (SERPINB5 [1]): 2-OH/3-OH>4-OH

Oc1c(Br)cc(C(c2c[nH]c3ccccc23)c2c[nH]c3ccccc23)cc1Br [C-DIM8-3,5-Br2]
tumor growth [2]: inhibited tumor growth | ED50 values for tumor growth inhibition [2]: low mg/kg/day or high μg/kg/day range | expression of NR4A1 (NR4A1, Rab4, AMPK): increased | G6Pase and PEPCK mRNA levels (G6Pase and PEPCK): inhibit | RMS tumor growth (RMS xenograft tumor; 0.25 mg/kg/d): tumor growth inhibition | RMS tumor growth (RMS xenograft tumor; doses of 10.0, 7.5, 5.0 and 2.5 mg/kg/day): complete tumor growth inhibition | toxicity (RMS xenograft tumor; in vivo study, RMS xenograft): not observed

COc1cc(C(c2c[nH]c3ccccc23)c2c[nH]c3ccccc23)cc(Cl)c1O [C-DIM8-3-Cl-5-OCH3]
tumor growth [2]: inhibited tumor growth | ED50 values for tumor growth inhibition [2]: low mg/kg/day or high μg/kg/day range | expression of NR4A1 (NR4A1, Rab4, AMPK): increased | serum glucose levels in a glucose tolerance test compared to control animals ([3]; 10 mg/kg/d): decreased | serum glucose ([3]; 25 mg/kg/d, current study): decreased | serum insulin levels ([3]; 25 mg/kg/d, current study): increased | blood glucose levels ([3]; HFD C57BL/6 mice, 10 mg/kg/d in corn oil, every second day, oral gavage): significant decrease

Oc1ccc(C(c2c[nH]c3ccccc23)c2c[nH]c3ccccc23)cc1Cl [C-DIM8-3-Cl]
tumor growth [2]: inhibited tumor growth | ED50 values for tumor growth inhibition [2]: low mg/kg/day or high μg/kg/day range | expression of NR4A1 (NR4A1, Rab4, AMPK): increased

Brc1ccc(C(c2c[nH]c3ccccc23)c2c[nH]c3ccccc23)cc1 [DIM-C-pPhBr, 1,1-bis(3′-indolyl)-1-(p-bromophenyl)methane]
SPR binding to NR4A1 (NR4A1 LBD): sticky interactions | SPR binding to NR4A2 (NR4A2 LBD): sticky interactions

Oc1ccc(C(c2c[nH]c3ccccc23)c2c[nH]c3ccccc23)cc1 [DIM-C-pPhOH]
binding to NR4A1 (NR4A1): high affinity | SPR binding to NR4A1 (NR4A1 LBD): bound with high affinity | concentration at which significant inhibition of GAL4-NR4A1 transactivation was observed (GAL4-NR4A1; not at 15 μM (steep dose response curve)): 22.5 µM | decreased expression of TXNDC5 and PAX3-FOX01A (TXNDC5 and PAX3-FOX01A): 50-60% | induction of SERPINB5 (SERPINB5 [4]): induced SERPINB5 | induction of SERPINB5 (SERPINB5 [1]; SKBR3 cells, 20 μM, DMSO control value relatively high): minimally induced | potency order for inducing SERPINB5 (SERPINB5 [1]): 2-OH/3-OH>4-OH | expression of NR4A1 (NR4A1, Rab4, AMPK): increased | NR4A1 and GLUT-4 gene expression [5]: induce | concentration of maximal induction of NR4A1 and GLUT-4 gene expression [5]: 20 µM | glucose uptake (C2C12 cells): significantly induced | G6Pase and PEPCK mRNA levels (G6Pase and PEPCK): inhibit | in vivo half-life [6]: short; also recorded: very short | serum half-life ([6]; in vivo): relatively short | partial tumor growth inhibition (tumor growth; 30-40 mg/kg/day, previous studies): 40-50% | doses at which tumor growth is (partially) inhibited (tumor growth; mouse, in vivo): 30 to 40 mg/kg/day | doses at which tumor growth is only partially inhibited (tumor growth; mouse, in vivo): 40 to 50 mg/kg/day | receptor-independent activities such as mitochondrial toxicity (cancer cell lines; cancer cell lines): minimal | concentrations that block the pro-oncogenic pathways (cancer cell lines; cell culture): 10 to 20 µM

CN(C)C(=N)N=C(N)N [metformin]
NR4A1 and GLUT-4 gene expression [5]: induce | expression of glycolytic genes PFKM, PGAM2, BPGM, PYGM (PFKM, PGAM2, BPGM, PYGM): significantly induced
